The molecules below were run against HIV-1 protease (Human immunodeficiency virus type 1 group M subtype B, UniProt P04585) (assay: Inhibition of microbial expressed viral protease (HIV-1 protease), method of Toth and Marshall).
Format: biochemical
Experimental: Biological Assay for Inhibition of Microbial Expressed Viral Protease
The inhibition constants against HIV-1 protease were measured using the method described by M. V. Toth and G. R. Marshall, Int. J. Peptide protein Res., 1990, 544. The method described M. W. Pennington et al., Peptides 1990, Gimet, E. and D. Andrew, Eds., Escom; Leiden, Netherlands (1990) may also be used. The potency is measured as IC50in μM. The person of skill would accept these tests as predictive of the compounds' utility in vivo to treat HIV infected patients.

SMILES	IC50 [µM]
CCCCCNC(=O)N[C@@H](Cc1ccccc1)[C@H](O)CCc1ccccc1C(=O)NC(C)(C)C [Example 000890]	0.1 to 10
Cc1c(N)cccc1C(=O)N[C@@H](Cc1ccccc1)[C@H](O)CCc1ccccc1C(=O)NC(C)(C)C [Example 000945]	> 10
C[C@H](O)C(=O)N[C@@H](Cc1ccccc1)[C@H](O)CCc1ccccc1C(=O)NC(C)(C)C [Example 000242]	0.1 to 10
CCOC(=O)N[C@@H](Cc1ccccc1)[C@H](O)CCc1ccccc1C(=O)NCCC(C)C [Example 000770]	0.1 to 10
CC(C)(C)NC(=O)c1ccccc1CC[C@@H](O)[C@H](Cc1ccccc1)NC(=O)COc1cccnc1Cl [Example 001268]	0.1 to 10
CC(C)(C)NC(=O)c1ccccc1CC[C@@H](O)[C@H](Cc1ccccc1)NC(=O)c1cc(=O)c2ccccc2o1 [Example 000974]	> 10
CCC(CC)OCC(=O)N[C@@H](Cc1ccccc1)[C@H](O)CCc1ccccc1C(=O)NC(C)(C)C [Example 001231]	0.1 to 10
CC(Oc1ccccc1)C(=O)NC(Cc1ccccc1)C(O)CCc1ccccc1C(=O)NC(C)(C)C (centres unmarked) [Example 000243]	0.1 to 10
CN(C)c1ccc(C(=O)N[C@@H](Cc2ccccc2)[C@H](O)CCc2ccccc2C(=O)NC(C)(C)C)cc1 [Example 000954]	> 10
CC(C)(C)NC(=O)c1ccccc1CC[C@@H](O)[C@H](Cc1ccccc1)NC(=O)Nc1ccc([N+](=O)[O-])cc1 [Example 000889]	0.1 to 10
COc1cccc(F)c1OCC(=O)N[C@@H](Cc1ccccc1)[C@H](O)CCc1ccccc1C(=O)NC(C)(C)C [Example 001217]	0.1 to 10
CC(C)(C)NC(=O)c1ccccc1CC[C@@H](O)[C@H](Cc1ccccc1)NC(=O)CNc1ccccc1 [Example 001192]	0.1 to 10
CC(C)(C)NC(=O)c1ccccc1CC[C@@H](O)[C@H](Cc1ccccc1)NC(=O)c1c(F)cccc1F [Example 000969]	0.1 to 10
CCc1ccc(S(=O)(=O)N[C@@H](Cc2ccccc2)[C@H](O)CCc2ccccc2C(=O)NC(C)(C)C)cc1 [Example 000874]	0.1 to 10
Cc1cccc(C)c1OCC(=O)N[C@@H](Cc1ccccc1)[C@H](O)CCc1ccccc1C(=O)NC(C)(C)C [Example 000987]	< 0.1
CC(C)(C)NC(=O)c1ccccc1CC[C@@H](O)[C@H](Cc1ccccc1)NC(=O)COC1CCCCC1 [Example 001228]	0.1 to 10
CC(C)(C)NC(=O)c1ccccc1CC[C@@H](O)[C@H](Cc1ccccc1)NC(=O)COc1ccc2ccccc2c1 [Example 000760]	0.1 to 10
CC(C)(C)NC(=O)c1ccccc1CC[C@@H](O)[C@H](Cc1ccccc1)NC(=S)Oc1ccc(F)cc1 [Example 001017]	> 10
CC(C)(C)NC(=O)c1ccccc1CC[C@@H](O)[C@H](Cc1ccccc1)NC(=O)COc1cc(F)cc(F)c1 [Example 001182]	> 10
Cc1cc(Br)c(OCC(=O)N[C@@H](Cc2ccccc2)[C@H](O)CCc2ccccc2C(=O)NC(C)(C)C)c(Br)c1 [Example 001225]	0.1 to 10
CC(C)(C)NC(=O)c1ccccc1CC[C@@H](O)[C@H](Cc1ccccc1)NC(=O)c1ccccc1C(F)(F)F [Example 001042]	0.1 to 10
CC(C)(C)NC(=O)c1ccccc1CC[C@@H](O)[C@H](Cc1ccccc1)NC(=O)N1c2ccccc2Sc2ccccc21 [Example 00241]	> 10
CC(C)(C)NC(=O)c1ccccc1CC[C@@H](O)[C@H](Cc1ccccc1)NC(=O)N(c1ccccc1)c1ccccc1 [Example 001006]	0.1 to 10
Cc1cccc(Cl)c1OCC(=O)N[C@@H](Cc1ccccc1)[C@H](O)CCc1ccccc1C(=O)NC(C)(C)C [Example 001215]	< 0.1
CC(C)CNC(=O)c1ccccc1CC[C@@H](O)[C@H](Cc1ccccc1)NC(=O)OC(C)(C)C [Example 000156]	< 0.1
CC(C)(C)NC(=O)c1ccccc1CC[C@@H](O)[C@H](Cc1ccccc1)NS(=O)(=O)c1ccc(C(F)(F)F)cc1 [Example 000877]	0.1 to 10

From patent publication US6696494B2, “α-hydroxyarylbutanamine inhibitors of aspartyl protease” (Enanta Pharmaceuticals, Inc., priority 2001, dated 2004)
